In patent US12661415B2, “Isoindolinone compounds and imaging agents for imaging Huntingtin protein” (CHDI Foundation, Inc., priority 2021, dated 2026):
“Also recorded” adds a separate entry of the source.

How the values were obtained:
mHTT aggregates [1] = molecular target: mHTT aggregates (Mus musculus, UniProt P42859); assay: In situ autoradiography (ARG) saturation binding, HOM zQ175 HD mouse model brain sections; conditions: for Bmax: 12-month-old HOM zQ175, tritium-labeled radioligand
Text: In situ autoradiography (ARG) was used to investigate the pharmacological binding characteristics of a tritium-labeled Compound 1-6 (“[^3H]-Compound 1-6”) in the HD mouse model 12-month-old HOM zQ175 and human post-mortem brains from healthy and HD gene-expanded carriers ([…]); specificity of binding was explored by including samples from Alzheimer's disease (AD) patients, which contain other pathological aggregates (e.g., Abeta-containing plaques and phosphor-Tau-expressing tangles). Saturation binding experiments were performed in coronal brain sections; [^3H]-Compound 1-6 binding was quantified by densitometric analysis and specific binding was determined in cortex (CTX). Affinity (KD) and maximum number of binding sites (Bmax) were determined for each region of interest (ROI). At the appropriate ages, HD and WT mice of the different strains were sacrificed by cervical dislocation, and the brains, including cerebellum, were dissected and washed in ice cold PBS. Subsequently, the brains were patted dry on paper towels and transferred into a 6-well plate filled with isopentane that was cooled to a temperature between -30° C. and -40° C. The frozen brains were stored at -80° C. until sectioning. The non-fixed and non-embedded frozen brains were sectioned by using a cryostat at -18° C. Thereby, serial coronal tissue sections of 20 μm thickness were mounted on superfrost slides and dried at room temperature for approximately 90 minutes. The slides were stored at -80° C. until the different experiments were conducted, but not longer than 3 weeks. A similar procedure was conducted with fresh-frozen human post-mortem brain blocks (healthy subjects {CTRL}, Huntingon's disease {HD}, and Alzheimer's disease {AD}). The appropriate number of slides containing the respective tissue sections were acclimated to room temperature for 30 minutes. The slides were then pre-incubated by immersion into 40 mL assay buffer for 20 minutes at room temperature. […] Within each brain section, regions of interest (ROI) were defined for STR, CTX, and HPC by using appropriate sample tools, and the software calculated density measures from the gray level values of all pixels within a defined ROI (Molecular dynamics counts per unit area, MDC/mm^2). Densitometric calibration related the optical densities to known concentrations of radioactivity from the calibrated tritium standards (fmol/mg tissue) and mean values were calculated for each ROI of the individual brains. Total binding (TB) and non-specific binding (NSB) of the radioligand were quantified, and specific binding (SB) was derived by subtracting NSB from TB (SB=TB-NSB) for each brain and ROI, respectively. Subsequently, the group mean±standard deviation (SD) was calculated for each ROI and experimental condition. […]

mHTT aggregates [2] = assay: In situ autoradiography (ARG) binding, human post-mortem brain sections; conditions: for specific HD binding at 0.3 nM radioligand: human HD brain sections
Text: In situ autoradiography (ARG) was used to investigate the pharmacological binding characteristics of a tritium-labeled Compound 1-6 (“[^3H]-Compound 1-6”) in the HD mouse model 12-month-old HOM zQ175 and human post-mortem brains from healthy and HD gene-expanded carriers (HDGECs); specificity of binding was explored by including samples from Alzheimer's disease (AD) patients, which contain other pathological aggregates (e.g., Abeta-containing plaques and phosphor-Tau-expressing tangles). Saturation binding experiments were performed in coronal brain sections; [^3H]-Compound 1-6 binding was quantified by densitometric analysis and specific binding was determined in cortex (CTX). Affinity (KD) and maximum number of binding sites (Bmax) were determined for each region of interest (ROI).
The non-fixed and non-embedded frozen brains were sectioned by using a cryostat at −18° C. Thereby, serial coronal tissue sections of 20 μm thickness were mounted on superfrost slides and dried at room temperature for approximately 90 minutes. The slides were stored at −80° C. until the different experiments were conducted, but not longer than 3 weeks. A similar procedure was conducted with fresh-frozen human post-mortem brain blocks (healthy subjects {CTRL}, Huntingon's disease {HD}, and Alzheimer's disease {AD}).
The appropriate number of slides containing the respective tissue sections were acclimated to room temperature for 30 minutes. The slides were then pre-incubated by immersion into 40 mL assay buffer for 20 minutes at room temperature. Following this pre-incubation step, one slide per animal was incubated by immersion into 30 mL of the 10 nM, 3 nM, 1 nM, 0.3 nM, 0.1 nM, 0.03 nM, 0.01 nM, or 0.003 nM Compound 1-6 solutions and one slide was incubated by immersion into 30 mL of 10 nM, 3 nM, 1 nM, 0.3 nM, 0.1 nM, 0.03 nM, 0.01 nM, or 0.003 nM [^3H]-Compound 1-6, plus 10 μM unlabeled Compound 1-6 solutions for 60 minutes at room temperature, respectively. A similar paradigm was performed with tritium-labeled Comparative Compound 3 (“[^3H]-Comparative Compound 3”) and tritium-labeled Comparative Compound 4 (“[^3H]-Comparative Compound 4”). Structures of these comparative compounds and compound 1-6 are shown below.
Afterwards, the slides were washed three times for 10 minutes with 200 mL of ice cold washing buffer at 4° C. and dipped for three seconds in ice cold distilled water to remove buffer salts. The slides were dried for three hours at 30° C. and exposed for 96 hours to Fuji BAS-TR 2015 tritium phosphor screens together with the calibrated tritium standards ART 0123C and ART 0123B. Stored radiation energy on the screen was scanned using the phosphorimager Typhoon FLA 7000.
Densitometric data analysis was performed using the MCID Analysis 7.1 software (Interfocus Imaging Ltd.). Within each brain section, regions of interest (ROI) were defined for STR, CTX, and HPC by using appropriate sample tools, and the software calculated density measures from the gray level values of all pixels within a defined ROI (Molecular dynamics counts per unit area, MDC/mm^2). Densitometric calibration related the optical densities to known concentrations of radioactivity from the calibrated tritium standards (fmol/mg tissue) and mean values were calculated for each ROI of the individual brains. Total binding (TB) and non-specific binding (NSB) of the radioligand were quantified, and specific binding (SB) was derived by subtracting NSB from TB (SB=TB−NSB) for each brain and ROI, respectively. Subsequently, the group mean±standard deviation (SD) was calculated for each ROI and experimental condition. The data were fitted to one-site binding equation using non-linear regression method in GraphPad Prism Software.

Sequence of mHTT aggregates (Mus musculus, UniProt P42859) (P42859 whole entry): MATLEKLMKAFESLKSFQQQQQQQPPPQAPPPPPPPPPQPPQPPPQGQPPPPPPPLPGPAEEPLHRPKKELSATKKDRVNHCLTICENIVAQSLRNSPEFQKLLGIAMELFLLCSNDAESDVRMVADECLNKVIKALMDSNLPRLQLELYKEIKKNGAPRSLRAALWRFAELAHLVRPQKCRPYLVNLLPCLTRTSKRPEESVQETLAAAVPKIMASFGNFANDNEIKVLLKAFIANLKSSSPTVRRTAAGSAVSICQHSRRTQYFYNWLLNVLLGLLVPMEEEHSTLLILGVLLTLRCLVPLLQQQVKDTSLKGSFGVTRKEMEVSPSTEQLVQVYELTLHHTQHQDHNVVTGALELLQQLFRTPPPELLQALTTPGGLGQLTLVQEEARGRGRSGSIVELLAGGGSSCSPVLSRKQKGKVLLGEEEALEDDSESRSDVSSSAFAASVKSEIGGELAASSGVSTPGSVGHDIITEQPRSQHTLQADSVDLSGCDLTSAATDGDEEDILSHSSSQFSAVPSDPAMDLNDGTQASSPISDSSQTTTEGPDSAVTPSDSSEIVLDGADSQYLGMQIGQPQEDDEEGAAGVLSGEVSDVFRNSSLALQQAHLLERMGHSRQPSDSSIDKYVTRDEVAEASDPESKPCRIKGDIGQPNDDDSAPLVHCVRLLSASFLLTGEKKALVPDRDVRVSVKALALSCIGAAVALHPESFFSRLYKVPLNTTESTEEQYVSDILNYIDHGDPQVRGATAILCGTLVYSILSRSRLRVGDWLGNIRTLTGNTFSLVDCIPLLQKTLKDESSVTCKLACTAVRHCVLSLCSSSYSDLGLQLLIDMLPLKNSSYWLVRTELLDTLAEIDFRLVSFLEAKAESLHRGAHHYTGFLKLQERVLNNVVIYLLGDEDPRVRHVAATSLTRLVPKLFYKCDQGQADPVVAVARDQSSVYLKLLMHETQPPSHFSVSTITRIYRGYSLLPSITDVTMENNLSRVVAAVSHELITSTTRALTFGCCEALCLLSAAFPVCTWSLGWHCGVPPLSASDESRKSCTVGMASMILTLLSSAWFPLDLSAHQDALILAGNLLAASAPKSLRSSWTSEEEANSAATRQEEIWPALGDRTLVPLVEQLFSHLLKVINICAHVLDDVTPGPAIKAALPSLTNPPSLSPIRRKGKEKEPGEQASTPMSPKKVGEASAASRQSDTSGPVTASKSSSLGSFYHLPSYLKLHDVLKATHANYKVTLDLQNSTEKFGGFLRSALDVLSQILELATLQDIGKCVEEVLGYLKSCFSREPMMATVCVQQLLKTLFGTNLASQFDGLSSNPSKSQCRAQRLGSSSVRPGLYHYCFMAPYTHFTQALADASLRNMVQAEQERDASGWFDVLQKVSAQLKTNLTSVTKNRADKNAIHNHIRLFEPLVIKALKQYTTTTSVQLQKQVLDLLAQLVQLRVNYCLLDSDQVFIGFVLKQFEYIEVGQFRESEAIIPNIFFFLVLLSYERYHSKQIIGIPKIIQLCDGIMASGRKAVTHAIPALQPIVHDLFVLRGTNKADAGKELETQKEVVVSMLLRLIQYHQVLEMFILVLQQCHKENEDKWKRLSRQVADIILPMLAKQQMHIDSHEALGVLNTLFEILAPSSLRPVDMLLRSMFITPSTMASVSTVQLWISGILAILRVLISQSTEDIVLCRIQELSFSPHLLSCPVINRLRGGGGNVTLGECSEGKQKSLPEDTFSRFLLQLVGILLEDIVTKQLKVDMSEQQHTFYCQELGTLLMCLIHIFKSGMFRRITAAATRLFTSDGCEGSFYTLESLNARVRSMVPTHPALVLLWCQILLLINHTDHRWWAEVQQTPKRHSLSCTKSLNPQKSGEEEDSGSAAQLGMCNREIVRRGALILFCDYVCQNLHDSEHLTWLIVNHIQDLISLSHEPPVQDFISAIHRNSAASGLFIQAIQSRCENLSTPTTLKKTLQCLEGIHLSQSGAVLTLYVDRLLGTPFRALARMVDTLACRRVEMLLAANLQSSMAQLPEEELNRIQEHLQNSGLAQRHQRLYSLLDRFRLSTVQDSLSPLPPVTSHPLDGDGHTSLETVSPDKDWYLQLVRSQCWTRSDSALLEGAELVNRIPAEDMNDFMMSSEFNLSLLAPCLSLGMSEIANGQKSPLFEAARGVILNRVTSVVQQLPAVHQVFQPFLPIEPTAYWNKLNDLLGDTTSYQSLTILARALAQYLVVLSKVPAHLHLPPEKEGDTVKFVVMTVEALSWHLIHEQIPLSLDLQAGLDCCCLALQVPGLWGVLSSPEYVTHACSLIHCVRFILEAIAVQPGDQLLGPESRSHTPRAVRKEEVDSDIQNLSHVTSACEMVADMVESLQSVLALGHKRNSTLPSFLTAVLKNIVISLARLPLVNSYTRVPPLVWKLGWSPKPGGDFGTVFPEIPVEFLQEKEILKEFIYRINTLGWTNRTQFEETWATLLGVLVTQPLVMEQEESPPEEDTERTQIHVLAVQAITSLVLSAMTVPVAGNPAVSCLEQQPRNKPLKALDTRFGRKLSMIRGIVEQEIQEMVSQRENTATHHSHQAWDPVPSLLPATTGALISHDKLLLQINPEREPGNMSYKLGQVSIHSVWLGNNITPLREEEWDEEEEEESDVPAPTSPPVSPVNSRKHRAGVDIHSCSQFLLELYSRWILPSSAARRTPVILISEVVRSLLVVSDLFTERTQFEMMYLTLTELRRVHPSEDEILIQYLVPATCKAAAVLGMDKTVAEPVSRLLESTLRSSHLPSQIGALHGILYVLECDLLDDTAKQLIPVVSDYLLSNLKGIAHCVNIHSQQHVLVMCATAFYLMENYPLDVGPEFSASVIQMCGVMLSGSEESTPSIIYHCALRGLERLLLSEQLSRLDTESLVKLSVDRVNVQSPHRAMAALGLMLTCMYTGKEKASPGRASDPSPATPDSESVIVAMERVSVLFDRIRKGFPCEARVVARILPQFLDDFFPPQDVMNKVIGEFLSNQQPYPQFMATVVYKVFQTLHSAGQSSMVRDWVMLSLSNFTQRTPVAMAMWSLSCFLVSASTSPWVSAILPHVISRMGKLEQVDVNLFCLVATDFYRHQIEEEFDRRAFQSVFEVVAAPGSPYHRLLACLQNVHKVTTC

SMILES	binding to WT brain sections (mHTT aggregates [1]; WT mouse brain sections, only detectable above LLoQ (0.5 fmol/mg tissue) at 3 nM and 10 nM)	Bmax (concentration of specific binding sites) (mHTT aggregates [1]; cortex, 12-month-old HOM zQ175) [fmol/mg tissue]	Bmax (mHTT aggregates [1]; cortex) [fmol/mg]	specific binding, AD patients (mHTT aggregates [2]; cortex brain sections from AD patients) [fmol/mg tissue]	specific binding, HD donors (mHTT aggregates [2]; frontal cortical sections from HD donors) [fmol/mg tissue]	specific binding, CTRL tissue (mHTT aggregates [2]; frontal cortical sections, healthy subjects (CTRL)) [fmol/mg tissue]	specific HD binding at 0.3 nM radioligand (mHTT aggregates [2])	binding to healthy control or Alzheimer's disease brain sections (mHTT aggregates [2]; human post-mortem brain sections)	binding density to juvenile HD brain (mHTT aggregates [2]; juvenile HD sample (one case) vs adult-onset HD brains)	white matter binding (mHTT aggregates [2]; post-mortem human brain, white matter) [fmol/mg tissue]
COc1ccc(COc2ccc3c(c2)CN(c2ccc(=O)n(C)n2)C3=O)nc1 [[^3H]-Compound 1-6]	minor	448.6	448	0.1±0.0	0.8±0.2	0.0±0.0	significant specific HD binding was detectable; also recorded: binds selectively to human HD brain sections	little to no binding	highest binding density	≤ 0.5
COc1ccc(NC(=O)c2ccn3c(n2)nc2ccccc23)cn1 [[^3H]-Comparative Compound 3, reference compound]	–	–	169	–	–	–	no HD binding was detectable; also recorded: failed to reveal HD binding	–	–	–
